Patent publication US20190359609A1, “BICYCLIC OGA INHIBITOR COMPOUNDS” (Janssen Pharmaceutica NV, priority 2016, published 2019)
Structures can show the parent of a compound that is named as a salt.

biological target: T1, recombinant human Meningioma Expressed Antigen 5 (MGEA5), also referred to as O-GlcNAcase (OGA) (Homo sapiens, UniProt O60502); assay: OGA biochemical assay: inhibition of FM-GlcNAc hydrolysis, fluorescence (protocol A 10 nM OGA, 1 h; protocol B 2 nM OGA, 6 h); settings: Enzymatic protocol B (2 nM OGA, 6 h)
T1 construct: Full length OGA enzyme was purchased at OriGene (cat # TP322411); purchased OriGene TP322411
T1 sequence (O60502 1-916): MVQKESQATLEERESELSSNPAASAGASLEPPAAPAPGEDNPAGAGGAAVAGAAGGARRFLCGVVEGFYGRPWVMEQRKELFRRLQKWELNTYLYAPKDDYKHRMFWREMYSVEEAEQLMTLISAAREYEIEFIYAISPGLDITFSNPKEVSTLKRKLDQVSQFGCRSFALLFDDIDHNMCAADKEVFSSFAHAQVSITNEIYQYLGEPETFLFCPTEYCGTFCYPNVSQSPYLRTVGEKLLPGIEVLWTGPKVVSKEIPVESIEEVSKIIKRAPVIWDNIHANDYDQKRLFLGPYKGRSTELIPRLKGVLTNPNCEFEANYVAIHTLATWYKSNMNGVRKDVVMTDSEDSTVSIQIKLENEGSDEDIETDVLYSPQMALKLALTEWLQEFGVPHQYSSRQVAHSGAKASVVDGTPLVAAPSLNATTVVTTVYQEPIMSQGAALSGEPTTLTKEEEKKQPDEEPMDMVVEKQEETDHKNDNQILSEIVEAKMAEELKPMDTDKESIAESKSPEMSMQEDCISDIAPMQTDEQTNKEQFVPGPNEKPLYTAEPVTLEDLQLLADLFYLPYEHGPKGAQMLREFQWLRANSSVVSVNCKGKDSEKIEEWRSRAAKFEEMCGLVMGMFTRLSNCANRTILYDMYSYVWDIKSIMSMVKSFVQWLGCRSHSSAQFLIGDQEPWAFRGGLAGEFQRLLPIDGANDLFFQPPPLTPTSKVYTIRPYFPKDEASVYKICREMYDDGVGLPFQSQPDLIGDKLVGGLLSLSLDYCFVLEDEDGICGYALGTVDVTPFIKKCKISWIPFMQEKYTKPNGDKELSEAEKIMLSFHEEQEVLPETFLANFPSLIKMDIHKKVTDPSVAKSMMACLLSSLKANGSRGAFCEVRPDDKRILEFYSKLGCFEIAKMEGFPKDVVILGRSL
Description: The assay is based on the inhibition of the hydrolysis of fluorescein mono-B-D-N-Acetyl-Glucosamine (FM-GlcNAc) (Mariappa et al. 2015, Biochem J 470:255) by the recombinant human Meningioma Expressed Antigen 5 (MGEA5), also referred to as 0-GlcNAcase (OGA). The hydrolysis FM-GlcNAc (Marker Gene technologies, cat # M1485) results in the formation of β-D-N-glucosamineacetate and fluorescein. The fluorescence of the latter can be measured at excitation wavelength 485 nm and emission wavelength 538 nm. An increase in enzyme activity results in an increase in fluorescence signal. Full length OGA enzyme was purchased at OriGene (cat # TP322411). The enzyme was stored in 25 mM Tris.HCl, pH 7.3, 100 mM glycine, 10% glycerol at −20° C. Thiamet G and GlcNAcStatin were tested as reference compounds (Yuzwa et al. 2008 Nature Chemical Biology 4:483; Yuzwa et al. 2012 Nature Chemical Biology 8:393). The assay was performed in 200 mM Citrate/phosphate buffer supplemented with 0.005% Tween-20. 35.6 g Na2HPO4 2 H2O (Sigma, # C0759) were dissolved in 1 L water to obtain a 200 mM solution. 19.2 g citric acid (Merck, #1.06580) was dissolved in 1 L water to obtain a 100 mM solution. pH of the sodiumphosphate solution was adjusted with the citric acid solution to 7.2. The buffer to stop the reaction consists of a 500 mM Carbonate buffer, pH 11.0. 734 mg FM-GlcNAc were dissolved in 5.48 mL DMSO to obtain a 250 mM solution and was stored at −20° C. OGA was used at a 10 nM (protocol A) or 2 nM (protocol B) concentration and FM-GlcNAc at a 100 uM final concentration. Dilutions were prepared in assay buffer.
50 nl of a compound dissolved in DMSO was dispensed on Black Proxiplate™ 384 Plus Assay plates (Perkin Elmer, #6008269) and 3 μl fl-OGA enzyme mix added subsequently. Plates were pre-incubated for 60 min at room temperature and then 2 μl FM-GlcNAc substrate mix added. […] Plates were briefly centrifuged for 1 min at 1000 rpm and incubate at room temperature for 1 h (10 nM OGA, protocol A) or 6 h (2 nM OGA, protocol B). To stop the reaction 5 μl STOP buffer were added and plates centrifuge again 1 min at 1000 rpm. Fluorescence was quantified in the Thermo Scientific Fluoroskan Ascent or the PerkinElmer EnVision with excitation wavelength 485 nm and emission wavelength 538 nm.
For analysis a best-fit curve is fitted by a minimum sum of squares method. From this an IC50 value and Hill coefficient was obtained. High control (no inhibitor) and low control (saturating concentrations of standard inhibitor) were used to define the minimum and maximum values.

Enzymatic Emax (%) | Structure (SMILES)
100.4 | CC(c1ccc2c(c1)OCO2)N1CCCC(c2cc3ncccc3[nH]2)C1 (single isomer, unassigned) [Compound 31]

same assay, conditions: Enzymatic protocol B (2 nM OGA, 6 h); read-out: Enzymatic Emax (%)

Structure (SMILES) | Emax [%]
CC(c1ccc2c(c1)OCCO2)N1CCCC(c2cc3ncccc3[nH]2)C1 (racemic) [Compound 33] | 98.6
CC(=O)Nc1ncc(CN2CCCC(c3cc4ccncc4[nH]3)C2)s1 (stereo not drawn) [Compound 11] | 100
CC(=O)Nc1ncc(CN2CCCC(c3cc4cnccc4[nH]3)C2)s1 (stereo not drawn) [Compound 12] | 124
CC(=O)Nc1ncc(CN2CCC(Cc3cc4ncccc4[nH]3)C2)s1 (stereo not drawn) [Compound 24] | 99.8
CC(=O)Nc1ncc(CN2CCCC(Cc3cc4ncccc4n3C)C2)s1 (stereo not drawn) [Compound 26] | 101

Results, then the compound that gave them:

Emax [%] | Structure (SMILES)
102 | CC(=O)Nc1ncc(CN2CCC(Cc3cc4ncccc4n3C)C2)s1 (stereo not drawn) [Compound 25]
102 | CC(c1ccc2c(c1)OCCO2)N1CCCC(c2cc3ncccc3n2C)C1 (stereo not drawn) [Compound 40]
102 | CC(=O)Nc1ncc(CN2CC[C@@H](Cc3cc4ncccc4n3C)C2)s1 [Compound 58]

same assay, conditions: Enzymatic protocol B (2 nM OGA, 6 h); read-out: Enzymatic hOGA; pIC50 (converted)

Structure (SMILES) | IC50 [nM]
CC(c1ccc2c(c1)OCCO2)N1CCCC(c2cc3ncccc3[nH]2)C1 (racemic) [Compound 33] | 55
CC(=O)Nc1ncc(CN2CCCC(c3cc4ccncc4[nH]3)C2)s1 (stereo not drawn) [Compound 11] | 74.1
CC(=O)Nc1ncc(CN2CCCC(c3cc4cnccc4[nH]3)C2)s1 (stereo not drawn) [Compound 12] | 42.7
CC(=O)Nc1ncc(CN2CCC(Cc3cc4ncccc4[nH]3)C2)s1 (stereo not drawn) [Compound 24] | 2.14
CC(=O)Nc1ncc(CN2CCCC(Cc3cc4ncccc4n3C)C2)s1 (stereo not drawn) [Compound 26] | 2.4

Further lines, results first:

IC50 [nM] | Structure (SMILES)
26.9 | CC(c1ccc2c(c1)OCO2)N1CCCC(c2cc3ncccc3[nH]2)C1 (single isomer, unassigned) [Compound 31]
1.51 | CC(=O)Nc1ncc(CN2CCC(Cc3cc4ncccc4n3C)C2)s1 (stereo not drawn) [Compound 25]
61.7 | CC(c1ccc2c(c1)OCCO2)N1CCCC(c2cc3ncccc3n2C)C1 (stereo not drawn) [Compound 40]
2.69 | CC(=O)Nc1ncc(CN2CC[C@@H](Cc3cc4ncccc4n3C)C2)s1 [Compound 58]

system: not given; assay: not given; settings: not given

melting point [°C] | Structure (SMILES)
178.2 | c1cnc2cc(C3CCCN(Cc4ccc5c(c4)OCCO5)C3)[nH]c2c1 (stereo not drawn) (as salt: HCl) [Compound 39]
187.16 | CC(=O)Nc1ncc(CN2CC[C@@H](Cc3cc4ncccc4n3C)C2)s1 [Compound 58]

biological target: T2, OGA (Homo sapiens, UniProt O60502); assay: OGA cellular assay: ICC detection of O-GlcNAcylated proteins in HEK293 cells inducible for P301L mutant human Tau; format: cell-based; settings: 6 hours incubation
T2 construct: endogenous in cells; host or cells: HEK293 cells inducible for P301L mutant human Tau (2N4R)
T2 sequence (O60502 1-916): T1 sequence (O60502 1-916)
Protocol: HEK293 cells inducible for P301L mutant human Tau (isoform 2N4R) were established at Janssen. Thiamet-G was used for both plate validation (high control) and as reference compound (reference EC50 assay validation). OGA inhibition is evaluated through the immunocytochemical (ICC) detection of O-GlcNAcylated proteins by the use of a monoclonal antibody (CTD110.6; Cell Signaling, #9875) detecting O-GlcNAcylated residues as previously described (Dorfmueller et al. 2010 Chemistry & biology, 17:1250).
Inhibition of OGA will result in an increase of 0-GlcNAcylated protein levels resulting in an increased signal in the experiment. Cell nuclei are stained with Hoechst to give a cell culture quality control and a rough estimate of immediate compounds toxicity, if any. ICC pictures are imaged with a Perkin Elmer Opera Phenix plate microscope and quantified with the provided software Perkin Elmer Harmony 4.1.
Cells were propagated in DMEM high Glucose (Sigma, #D5796) following standard procedures. 2 days before the cell assay cells are split, counted and seeded in Poly-D-Lysine (PDL) coated 96-wells (Greiner, #655946) plate at a cell density of 12,000 cells per cm^2 (4,000 cells per well) in 100 μl of Assay Medium (Low Glucose medium is used to reduce basal levels of GlcNAcylation) (Park et al. 2014 The Journal of biological chemistry 289:13519). At the day of compound test medium from assay plates was removed and replenished with 90 μl of fresh Assay Medium. 10 μl of compounds at a 10fold final concentration were added to the wells. Plates were centrifuged shortly before incubation in the cell incubator for 6 hours. DMSO concentration was set to 0.2%. Medium is discarded by applying vacuum. For staining of cells medium was removed and cells washed once with 100 μl D-PBS (Sigma, #D8537). From next step onwards unless other stated assay volume was always 50 μl and incubation was performed without agitation and at room temperature. Cells were fixed in 50 μl of a 4% paraformaldehyde (PFA, Alpha aesar, #043368) PBS solution for 15 minutes at room temperature. […] Before analysis samples were washed 2 times manually for 5 minutes in ICC base buffer.
Imaging is performed using Perkin Elmer Phenix Opera using a water 20× objective and recording 9 fields per well. Intensity readout at 488 nm is used as a measure of O-GlcNAcylation level of total proteins in wells. To assess potential toxicity of compounds nuclei were counted using the Hoechst staining. IC50-values are calculated using parametric non-linear regression model fitting. As a maximum inhibition Thiamet G at a 200 uM concentration is present on each plate. In addition, a concentration response of Thiamet G is calculated on each plate.

Structure (SMILES) | Emax [%]
CC(c1ccc2c(c1)OCCO2)N1CCCC(c2cc3ncccc3[nH]2)C1 (racemic) [Compound 33] | 107
CC(=O)Nc1ncc(CN2CCCC(c3cc4ccncc4[nH]3)C2)s1 (stereo not drawn) [Compound 11] | 103
CC(=O)Nc1ncc(CN2CCCC(c3cc4cnccc4[nH]3)C2)s1 (stereo not drawn) [Compound 12] | 120
CC(=O)Nc1ncc(CN2CCC(Cc3cc4ncccc4[nH]3)C2)s1 (stereo not drawn) [Compound 24] | 98
CC(=O)Nc1ncc(CN2CCCC(Cc3cc4ncccc4n3C)C2)s1 (stereo not drawn) [Compound 26] | 118

Continued, values first:

Emax [%] | Structure (SMILES)
95.8 | CC(c1ccc2c(c1)OCO2)N1CCCC(c2cc3ncccc3[nH]2)C1 (single isomer, unassigned) [Compound 31]
121 | CC(=O)Nc1ncc(CN2CCC(Cc3cc4ncccc4n3C)C2)s1 (stereo not drawn) [Compound 25]
75.1 | CC(c1ccc2c(c1)OCCO2)N1CCCC(c2cc3ncccc3n2C)C1 (stereo not drawn) [Compound 40]

same assay, conditions: 6 hours incubation, read-out: Cellular hOGA, pEC50 (converted)

Structure (SMILES) | EC50 [nM]
CC(c1ccc2c(c1)OCCO2)N1CCCC(c2cc3ncccc3[nH]2)C1 (racemic) [Compound 33] | 417
CC(=O)Nc1ncc(CN2CCCC(c3cc4ccncc4[nH]3)C2)s1 (stereo not drawn) [Compound 11] | 18.2
CC(=O)Nc1ncc(CN2CCCC(c3cc4cnccc4[nH]3)C2)s1 (stereo not drawn) [Compound 12] | 17.8
CC(=O)Nc1ncc(CN2CCC(Cc3cc4ncccc4[nH]3)C2)s1 (stereo not drawn) [Compound 24] | 7.94
CC(=O)Nc1ncc(CN2CCCC(Cc3cc4ncccc4n3C)C2)s1 (stereo not drawn) [Compound 26] | < 4.57

Further lines, results first:

EC50 [nM] | Structure (SMILES)
195 | CC(c1ccc2c(c1)OCO2)N1CCCC(c2cc3ncccc3[nH]2)C1 (single isomer, unassigned) [Compound 31]
9.33 | CC(=O)Nc1ncc(CN2CCC(Cc3cc4ncccc4n3C)C2)s1 (stereo not drawn) [Compound 25]
955 | CC(c1ccc2c(c1)OCCO2)N1CCCC(c2cc3ncccc3n2C)C1 (stereo not drawn) [Compound 40]
